Experimental data: patent publication US10323041B2, “Bicyclic derivatives, a process for their preparation and pharmaceutical compositions containing them” (LES LABORATOIRES SERVIER, priority 2015, dated 2019)

Each molecule was assayed against Mcl-1 protein (Homo sapiens, UniProt Q07820) (assay: Inhibition of Mcl-1 by the fluorescence polarisation technique). Conditions: Method 1 (not underlined) or Method 2 (underlined); underlining not visible; first value where cell prints two; read-out: IC50 (M) Mcl-1 FP.
Type: binding
Description: The relative binding potency of each compound was determined via fluorescence Polarisation (FP). The method utilised a Fluorescein labelled ligand Fluorescein-βAla-Ahx-[A-REIGAQLRRMADDLNAQY (SEQ ID NO: 1)]-OH; mw 2,765) which binds to the Mcl-1 protein (such that corresponds to the UniProtKB® primary accession number: Q07820) leading to an increased anisotropy measured in milli-polarisation (mP) units using a reader. The addition of a compound which binds competitively to the same site as the ligand will result in a greater proportion of unbound ligand in the system indicated by a decrease in mP units.
Method 1: An 11 point serial dilution of each compound was prepared in DMSO and 2 μl transferred into flat bottomed, low binding, 384-well plate (final DMSO concentration 5%). 38 μl of buffer (10 mM 4-(2-hydroxyethyl)-1-piperazineethanesulfonic acid [HEPES], 150 mM NaCl, 0.05% Tween 20, pH 7.4), containing the Fluorescein labelled ligand (final concentration 1 nM) and Mcl-1 protein (final concentration 5 nM) was then added.
(§1) Assay plates were incubated ˜2 hours at room temperature before FP was measured on a […] Synergy2 reader (Ex. 528 nm, Em. 640 nm, Cut off 510 nm) and mP units calculated. The binding of increasing doses of test compound was expressed as a percentage reduction in mP compared to a window established between ‘5% DMSO only’ and ‘100% inhibition’ controls. 11-point dose response curves were plotted with XL-Fit software using a 4-Parameter Logistic Model (Sigmoidal Dose-Response Model) and the inhibitory concentrations that gave a 50% reduction in mP (IC50) were determined. Results obtained using Method 1 are presented in Table 1 below; IC50 of Mcl-1 inhibition obtained using Method 1 are not underlined.
Method 2: An 11 point serial dilution of each compound was prepared in DMSO and 2 μl transferred into flat bottomed, low binding, 384-well plate (final DMSO concentration 5%). 38 μl of buffer (20 mM Na2HPO4, 1 mM EDTA, 50 mM NaCl, pH 7.4), containing the Fluorescein labelled ligand (final concentration 10 nM) and Mcl-1 protein (final concentration 10 nM) was then added.
as §1, with “inhibition’ controls (50 μM unlabelled ligand).” for “inhibition’ controls.”, “Method 2” for “Method 1”, “are” for “are not”

Sequence of Mcl-1 protein (Q07820 whole entry): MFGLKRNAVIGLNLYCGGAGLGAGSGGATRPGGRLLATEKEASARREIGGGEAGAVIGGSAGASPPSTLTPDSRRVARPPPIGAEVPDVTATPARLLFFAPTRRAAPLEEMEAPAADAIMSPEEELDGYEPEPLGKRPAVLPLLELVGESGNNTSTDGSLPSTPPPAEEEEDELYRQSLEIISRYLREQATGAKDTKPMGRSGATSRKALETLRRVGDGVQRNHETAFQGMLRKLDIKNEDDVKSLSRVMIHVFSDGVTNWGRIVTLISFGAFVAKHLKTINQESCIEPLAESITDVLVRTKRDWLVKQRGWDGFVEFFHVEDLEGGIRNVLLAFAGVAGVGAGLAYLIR

**Q.** `CCc1c(-c2cccc3ccccc23)c2c(N[C@H](Cc3ccccc3)C(=O)O)ncnc2n1Cc1ccccc1` (single isomer, unassigned) [Example 12, N-[7-benzyl-6-ethyl-5-(naphthalen-1-yl)-7H-pyrrolo[2,3-d]pyrimidin-4-yl]-D-phenylalanine] was tested. Which IC50 did it give?
**A.** Its IC50 is 5.6e-07 M.

**Q.** How did the IC50 turn out when `CCc1c(-c2cccc3ccccc23)c2c(N[C@H](Cc3ccccc3)C(=O)O)ncnc2n1Cc1ccccc1` (single isomer, unassigned) [Example 13, N-[7-benzyl-6-ethyl-5-(naphthalen-1-yl)-7H-pyrrolo[2,3-d]pyrimidin-4-yl]-D-phenylalanine] was run?
**A.** Its IC50 is 6.6e-07 M.

**Q.** Which IC50 does the source give for `CCc1c(-c2cccc3ccccc23)c2c(N[C@H](Cc3ccccc3)C(=O)O)ncnc2n1CCOc1cccc2ccccc12` (single isomer, unassigned) [Example 14, N-{6-ethyl-5-(naphthalen-1-yl)-7-[2-(naphthalen-1-yloxy)ethyl]-7H-pyrrolo[2,3-d]pyrimidin-4-yl}-D-phenylalanine] here?
**A.** Its IC50 is 1.2e-05 M.

**Q.** `CCc1c(-c2cccc3ccccc23)c2c(N[C@H](Cc3ccccc3)C(=O)O)ncnc2n1CCOc1cccc2ccccc12` (single isomer, unassigned) [Example 15, N-{6-ethyl-5-(naphthalen-1-yl)-7-[2-(naphthalen-1-yloxy)ethyl]-7H-pyrrolo[2,3-d]pyrimidin-4-yl}-D-phenylalanine] was tested. Which IC50 did it give?
**A.** Its IC50 is 7.3e-06 M.

**Q.** For `CCc1c(-c2cccc3ccccc23)c2c(N[C@H](Cc3ccccc3)C(=O)O)ncnc2n1CCc1ccccc1` (single isomer, unassigned) [Example 16, N-[6-ethyl-5-(naphthalen-1-yl)-7-(2-phenylethyl)-7H-pyrrolo[2,3-d]pyrimidin-4-yl]-D-phenylalanine], which IC50 is on record?
**A.** Its IC50 is 1.8e-06 M.

**Q.** With `CCc1c(-c2cccc3ccccc23)c2c(N[C@H](Cc3ccccc3)C(=O)O)ncnc2n1CCc1ccccc1` (single isomer, unassigned) [Example 17, N-[6-ethyl-5-(naphthalen-1-yl)-7-(2-phenylethyl)-7H-pyrrolo[2,3-d]pyrimidin-4-yl]-D-phenylalanine] as the molecule, how does the IC50 read?
**A.** Its IC50 is 3.8e-06 M.

**Q.** Which IC50 does the source give for `CCc1c(-c2cccc3ccccc23)c2c(N[C@H](Cc3ccccc3)C(=O)O)ncnc2n1CCCc1ccccc1` (single isomer, unassigned) [Example 18, N-[6-ethyl-5-(naphthalen-1-yl)-7-(3-phenylpropyl)-7H-pyrrolo[2,3-d]pyrimidin-4-yl]-D-phenylalanine] here?
**A.** Its IC50 is 3.1e-06 M.

**Q.** With `CCc1c(-c2cccc3ccccc23)c2c(N[C@H](Cc3ccccc3)C(=O)O)ncnc2n1CCCc1ccccc1` (single isomer, unassigned) [Example 19, N-[6-ethyl-5-(naphthalen-1-yl)-7-(3-phenylpropyl)-7H-pyrrolo[2,3-d]pyrimidin-4-yl]-D-phenylalanine] as the molecule, how does the IC50 read?
**A.** Its IC50 is 3.3e-06 M.

**Q.** `C=CCn1c(CC)c(-c2cccc(Cl)c2C)c2c(NC(Cc3ccccc3)C(=O)O)ncnc21` (single isomer, unassigned) [Example 24, N-[(5Ra)-5-(3-chloro-2-methylphenyl)-6-ethyl-7-(prop-2-en-1-yl)-7H-pyrrolo[2,3-d]pyrimidin-4-yl]-D-phenylalanine] was tested. Which IC50 did it give?
**A.** Its IC50 is 1.8e-05 M.

**Q.** With `C=CCn1c(CC)c(-c2cccc(Cl)c2C)c2c(NC(Cc3ccccc3)C(=O)O)ncnc21` (single isomer, unassigned) [Example 25, N-[(5Sa)-5-(3-chloro-2-methylphenyl)-6-ethyl-7-(prop-2-en-1-yl)-7H-pyrrolo[2,3-d]pyrimidin-4-yl]-D-phenylalanine] as the molecule, how does the IC50 read?
**A.** The IC50 was 9.1e-06 M.

**Q.** For `CC#CCn1c(CC)c(-c2cccc(Cl)c2C)c2c(NC(Cc3ccccc3)C(=O)O)ncnc21` (single isomer, unassigned) [Example 26, N-[7-(but-2-yn-1-yl)-(5Ra)-5-(3-chloro-2-methylphenyl)-6-ethyl-7H-pyrrolo[2,3-d]pyrimidin-4-yl]-D-phenylalanine], which IC50 is on record?
**A.** The IC50 was 5.9e-06 M.

**Q.** For `CC#CCn1c(CC)c(-c2cccc(Cl)c2C)c2c(NC(Cc3ccccc3)C(=O)O)ncnc21` (single isomer, unassigned) [Example 27, N-[7-(but-2-yn-1-yl)-(5Sa)-5-(3-chloro-2-methylphenyl)-6-ethyl-7H-pyrrolo[2,3-d]pyrimidin-4-yl]-D-phenylalanine], which IC50 is on record?
**A.** The IC50 was 3.3e-07 M.
